Reference: ChEMBL document CHEMBL1759974, “Discovery of triazine-benzimidazoles as selective inhibitors of mTOR” (Bioorg Med Chem Lett, 2011)
Values after ≈ are worked out from the molar mass of the structure shown. Active and inactive are the calls of the source. No cut-off for these calls is given here.

Assays:
[1] = Oral bioavailability in Sprague-Dawley rat at 2 mg/kg; assay type: ADME, organism-based; conditions: in vivo
[2] = Intrinsic clearance in human liver microsomes; assay type: ADME, Microsome
[3] = target: T1, Serine/threonine-protein kinase mTOR (Homo sapiens, UniProt P42345)
[4] = target: T1, Serine/threonine-protein kinase mTOR; remark: listed apart in the source
[5] = target: T1, Serine/threonine-protein kinase mTOR; remark: listed apart in the source
Description: Inhibition of mTOR in human U-87 cells assessed as inhibition of phosphorylation of AKT at S473

[6] = Intrinsic clearance in rat liver microsomes; assay type: ADME, Microsome
Rattus norvegicus [7] = experiment: In vivo clearance in bile-duct cannulated rat assessed as multiple glucuronidation metabolites in bile by LC/MS analysis; assay type: ADME, organism-based
[8] = Plasma protein binding in Sprague-Dawley rat at 1 mg/kg, iv and 2 mg/kg, po; assay type: ADME, organism-based; conditions: read-out: PPB (converted)
[9] = target: T2, Phosphatidylinositol 4,5-bisphosphate 3-kinase catalytic subunit delta isoform (Homo sapiens, UniProt O00329)
T2 sequence (O00329 whole entry): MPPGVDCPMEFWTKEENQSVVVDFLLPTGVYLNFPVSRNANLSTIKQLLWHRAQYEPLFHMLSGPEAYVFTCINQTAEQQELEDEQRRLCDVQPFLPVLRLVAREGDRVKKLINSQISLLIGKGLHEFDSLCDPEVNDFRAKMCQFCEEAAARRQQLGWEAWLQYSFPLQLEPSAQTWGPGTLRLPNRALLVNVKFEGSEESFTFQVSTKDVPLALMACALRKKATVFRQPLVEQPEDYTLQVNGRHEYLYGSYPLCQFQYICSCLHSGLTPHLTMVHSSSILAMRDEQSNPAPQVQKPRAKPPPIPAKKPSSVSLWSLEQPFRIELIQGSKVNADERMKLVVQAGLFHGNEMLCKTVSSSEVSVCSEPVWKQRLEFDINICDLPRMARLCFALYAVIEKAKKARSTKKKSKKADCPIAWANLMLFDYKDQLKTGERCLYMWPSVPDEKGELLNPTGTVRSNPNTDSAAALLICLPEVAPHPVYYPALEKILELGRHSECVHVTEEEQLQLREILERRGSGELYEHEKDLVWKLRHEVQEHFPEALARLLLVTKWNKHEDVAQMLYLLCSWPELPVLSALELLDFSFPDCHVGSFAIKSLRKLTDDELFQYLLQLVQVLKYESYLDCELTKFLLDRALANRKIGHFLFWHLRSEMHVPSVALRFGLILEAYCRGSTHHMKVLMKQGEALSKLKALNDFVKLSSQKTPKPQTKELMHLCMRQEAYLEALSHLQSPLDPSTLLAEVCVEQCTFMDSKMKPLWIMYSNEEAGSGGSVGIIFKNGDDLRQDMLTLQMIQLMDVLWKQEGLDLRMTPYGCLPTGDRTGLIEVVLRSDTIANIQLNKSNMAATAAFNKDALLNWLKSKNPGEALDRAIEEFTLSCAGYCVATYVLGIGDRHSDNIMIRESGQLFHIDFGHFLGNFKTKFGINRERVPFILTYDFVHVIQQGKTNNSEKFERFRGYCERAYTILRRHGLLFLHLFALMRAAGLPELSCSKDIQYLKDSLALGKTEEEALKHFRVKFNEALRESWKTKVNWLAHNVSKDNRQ

[10] = Volume of distribution at steady state in Sprague-Dawley rat at 1 mg/kg, iv and 2 mg/kg, po; assay type: ADME, organism-based; conditions: in vivo, read-out: Vdss
[11] = Solubility of compound in 0.01 N HCL; assay type: physicochemical; conditions: buffer
Liver = experiment: Intrinsic clearance in rat liver hepatocytes; assay type: ADME, cell-based, Hepatocyte
[12] = Clearance in Sprague-Dawley rat at 1 mg/kg, iv and 2 mg/kg, po; assay type: ADME, organism-based; conditions: in vivo
Rattus norvegicus [13] = experiment: AUC in Sprague-Dawley rat at 1 mg/kg, iv; assay type: ADME, organism-based, Plasma; set-up: dose 1 mg/kg, route intravenous; conditions: in vivo
[14] = target: Phosphatidylinositol 4,5-bisphosphate 3-kinase catalytic subunit beta isoform (Homo sapiens, UniProt P42338)
[15] = Half life in Sprague-Dawley rat at 1 mg/kg, iv; assay type: ADME, organism-based; set-up: dose 1 mg/kg, route intravenous; conditions: in vivo
[16] = target: Phosphatidylinositol 4,5-bisphosphate 3-kinase catalytic subunit alpha isoform (Homo sapiens, UniProt P42336)
COLO-829 = experiment: Antiproliferative activity against human COLO829 harboring BRAF/PTEN gene mutation/amplification at 1 uM after 72 hrs by Ambit assay in presence of 10% serum; assay type: functional, cell-based; conditions: COLO-829, 72 h
NCI-H460 = experiment: Antiproliferative activity against human NCI-H460 harboring PI3K/KRAS/LKB1 gene mutation/amplification at 1 uM after 72 hrs by Ambit assay in presence of 10% serum; assay type: functional, cell-based; conditions: NCI-H460, 72 h
A549 = experiment: Antiproliferative activity against human A549 cells harboring KRAS/LKB1 gene mutation/amplification at 1 uM after 72 hrs by Ambit assay in presence of 10% serum; assay type: functional, cell-based; conditions: A549, 72 h
UACC-893 = experiment: Antiproliferative activity against human UACC-893 cells harboring HER2/PI3K/p53 mutant gene at 1 uM after 72 hrs by Ambit assay in presence of 10% serum; assay type: functional, cell-based; conditions: UACC-893, 72 h
[17] = target: TGF-beta receptor type-2 (Homo sapiens) (UniProt P37173); experiment: Inhibition of TGFBR2 assessed as inhibition of TGFbeta induced SMAD phosphorylation at 1 uM relative to control
CAL-51 = experiment: Antiproliferative activity against human CAL51 harboring PI3K/PTEN gene mutation/amplification at 1 uM after 72 hrs by Ambit assay in presence of 10% serum; assay type: functional, cell-based; conditions: CAL-51, 72 h
MCF7 = experiment: Antiproliferative activity against human MCF7 harboring PI3K gene mutation/amplification at 1 uM after 72 hrs by Ambit assay in presence of 10% serum; assay type: functional, cell-based; conditions: MCF7, 72 h
[18] = Antiproliferative activity against human U87MG harboring PTEN gene mutation/amplification at 1 uM after 72 hrs by Ambit assay in presence of 10% serum; assay type: functional, U-87MG ATCC; conditions: U-87 MG
BT-474 = experiment: Antiproliferative activity against human BT474 cells harboring HER2/PI3K/p53 mutant gene at 1 uM after 72 hrs by Ambit assay in presence of 10% serum; assay type: functional, cell-based; conditions: BT-474, 72 h
DU-4475 = experiment: Antiproliferative activity against human DU4475 harboring BRAF/APC/RB gene mutation/amplification at 1 uM after 72 hrs by Ambit assay in presence of 10% serum; assay type: functional, cell-based; conditions: DU-4475, 72 h
MDA-MB-468 = experiment: Antiproliferative activity against human MDA-MB-468 harboring PTEN/EGFR/p53 gene mutation/amplification at 1 uM after 72 hrs by Ambit assay in presence of 10% serum; assay type: functional, cell-based; conditions: MDA-MB-468, 72 h
NCI-H1975 = experiment: Antiproliferative activity against human NCI-H1975 harboring PI3K/EGFR/p53 gene mutation/amplification at 1 uM after 72 hrs by Ambit assay in presence of 10% serum; assay type: functional, cell-based; conditions: NCI-H1975, 72 h
SK-MEL-28 = experiment: Antiproliferative activity against human SK-MEL-28 harboring BRAF gene mutation/amplification at 1 uM after 72 hrs by Ambit assay in presence of 10% serum; assay type: functional, cell-based; conditions: SK-MEL-28, 72 h
NCI-H2009 = experiment: Antiproliferative activity against human NCI-H2009 harboring KRAS/RB/p53 gene mutation/amplification at 1 uM after 72 hrs by Ambit assay in presence of 10% serum; assay type: functional, cell-based; conditions: NCI-H2009, 72 h
NCI-H82 = experiment: Antiproliferative activity against human NCI-H82 harboring CMYC/RB gene mutation/amplification at 1 uM after 72 hrs by Ambit assay in presence of 10% serum; assay type: functional, cell-based; conditions: NCI-H82, 72 h
A-375 = experiment: Antiproliferative activity against human A375 cells harboring BRAF gene mutation/amplification at 1 uM after 72 hrs by Ambit assay in presence of 10% serum; assay type: functional, cell-based; conditions: A-375, 72 h
MDA-MB-231 = experiment: Antiproliferative activity against human MDA-MB-231 harboring KRAS/BRAF/p53 gene mutation/amplification at 1 uM after 72 hrs by Ambit assay in presence of 10% serum; assay type: functional, cell-based; conditions: MDA-MB-231, 72 h
Calu-6 = experiment: Antiproliferative activity against human Calu6 harboring KRAS gene mutation/amplification at 1 uM after 72 hrs by Ambit assay in presence of 10% serum; assay type: functional, cell-based; conditions: Calu-6, 72 h
[19] = target: TGF-beta receptor type-2 (Homo sapiens) (UniProt P37173); experiment: Inhibition of TGFBR2 assessed as inhibition of TGFbeta induced SMAD phosphorylation at 10 uM relative to control
HCC1954 = experiment: Antiproliferative activity against human HCC1954 harboring PI3K/p53 gene mutation/amplification at 1 uM after 72 hrs by Ambit assay in presence of 10% serum; assay type: functional, cell-based; conditions: HCC1954, 72 h
[20] = Half life in Sprague-Dawley rat at 5 mg/kg, po; assay type: ADME, organism-based; set-up: dose 5 mg/kg, route oral; conditions: in vivo
[21] = target: Phosphatidylinositol 4,5-bisphosphate 3-kinase catalytic subunit gamma isoform (Homo sapiens, UniProt P48736)
Rattus norvegicus [22] = experiment: AUC in Sprague-Dawley rat at 5 mg/kg, po; assay type: ADME, organism-based, Plasma; set-up: dose 5 mg/kg, route oral; conditions: in vivo

Phosphatidylinositol 4,5-bisphosphate 3-kinase catalytic subunit beta isoform, sequence (P42338 whole entry, canonical isoform): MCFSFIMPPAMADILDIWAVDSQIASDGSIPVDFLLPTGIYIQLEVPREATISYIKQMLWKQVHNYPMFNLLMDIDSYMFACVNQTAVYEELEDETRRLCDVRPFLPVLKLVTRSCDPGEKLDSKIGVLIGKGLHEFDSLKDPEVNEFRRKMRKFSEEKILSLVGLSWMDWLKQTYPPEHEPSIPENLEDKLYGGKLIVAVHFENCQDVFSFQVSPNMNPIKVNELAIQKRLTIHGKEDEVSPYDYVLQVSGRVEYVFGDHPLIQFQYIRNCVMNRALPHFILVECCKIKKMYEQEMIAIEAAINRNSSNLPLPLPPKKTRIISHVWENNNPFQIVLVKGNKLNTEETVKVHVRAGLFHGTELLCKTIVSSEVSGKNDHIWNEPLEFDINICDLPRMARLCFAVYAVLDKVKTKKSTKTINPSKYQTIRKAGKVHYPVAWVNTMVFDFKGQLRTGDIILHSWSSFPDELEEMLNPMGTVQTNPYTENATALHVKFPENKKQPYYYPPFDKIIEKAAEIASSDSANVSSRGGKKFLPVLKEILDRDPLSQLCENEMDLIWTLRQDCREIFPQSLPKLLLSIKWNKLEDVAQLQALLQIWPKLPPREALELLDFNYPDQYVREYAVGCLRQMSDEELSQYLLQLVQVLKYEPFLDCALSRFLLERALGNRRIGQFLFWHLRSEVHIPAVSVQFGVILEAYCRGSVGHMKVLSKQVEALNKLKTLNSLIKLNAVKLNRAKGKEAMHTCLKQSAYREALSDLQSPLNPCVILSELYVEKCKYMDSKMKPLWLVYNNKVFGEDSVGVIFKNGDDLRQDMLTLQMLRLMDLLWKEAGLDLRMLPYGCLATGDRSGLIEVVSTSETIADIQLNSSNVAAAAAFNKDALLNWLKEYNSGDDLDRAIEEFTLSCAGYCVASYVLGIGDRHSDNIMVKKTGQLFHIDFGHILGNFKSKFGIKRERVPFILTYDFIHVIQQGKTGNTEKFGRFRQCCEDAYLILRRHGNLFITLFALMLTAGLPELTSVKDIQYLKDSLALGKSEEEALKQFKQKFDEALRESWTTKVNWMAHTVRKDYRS
Phosphatidylinositol 4,5-bisphosphate 3-kinase catalytic subunit alpha isoform, sequence (P42336 whole entry, canonical isoform): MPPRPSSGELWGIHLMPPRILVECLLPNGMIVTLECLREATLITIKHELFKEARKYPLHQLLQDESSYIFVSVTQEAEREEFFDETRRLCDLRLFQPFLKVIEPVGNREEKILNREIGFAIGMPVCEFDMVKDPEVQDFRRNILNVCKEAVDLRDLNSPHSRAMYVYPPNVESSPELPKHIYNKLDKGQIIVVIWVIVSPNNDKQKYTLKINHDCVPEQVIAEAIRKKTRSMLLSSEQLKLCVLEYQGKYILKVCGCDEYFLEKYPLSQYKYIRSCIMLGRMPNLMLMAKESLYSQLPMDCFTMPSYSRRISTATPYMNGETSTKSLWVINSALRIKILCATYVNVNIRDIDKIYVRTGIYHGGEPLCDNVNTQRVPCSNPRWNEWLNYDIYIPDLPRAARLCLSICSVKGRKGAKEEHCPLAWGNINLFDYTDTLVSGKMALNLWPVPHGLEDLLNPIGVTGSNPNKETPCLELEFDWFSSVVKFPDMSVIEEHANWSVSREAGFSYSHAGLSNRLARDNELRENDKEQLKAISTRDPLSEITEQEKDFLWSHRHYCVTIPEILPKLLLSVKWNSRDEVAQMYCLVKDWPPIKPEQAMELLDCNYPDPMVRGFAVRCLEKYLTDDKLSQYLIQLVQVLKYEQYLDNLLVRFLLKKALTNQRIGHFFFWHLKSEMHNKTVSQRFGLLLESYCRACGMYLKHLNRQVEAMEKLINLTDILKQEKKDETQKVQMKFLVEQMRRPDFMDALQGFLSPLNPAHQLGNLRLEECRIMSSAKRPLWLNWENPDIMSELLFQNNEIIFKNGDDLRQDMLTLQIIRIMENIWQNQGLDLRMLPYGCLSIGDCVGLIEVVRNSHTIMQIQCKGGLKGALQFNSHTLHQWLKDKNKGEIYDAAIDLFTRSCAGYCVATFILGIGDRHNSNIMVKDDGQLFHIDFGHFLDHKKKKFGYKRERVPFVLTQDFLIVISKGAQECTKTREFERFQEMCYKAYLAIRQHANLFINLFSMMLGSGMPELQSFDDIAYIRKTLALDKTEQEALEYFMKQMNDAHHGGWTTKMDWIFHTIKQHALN
TGF-beta receptor type-2 (Homo sapiens), sequence (P37173 whole entry): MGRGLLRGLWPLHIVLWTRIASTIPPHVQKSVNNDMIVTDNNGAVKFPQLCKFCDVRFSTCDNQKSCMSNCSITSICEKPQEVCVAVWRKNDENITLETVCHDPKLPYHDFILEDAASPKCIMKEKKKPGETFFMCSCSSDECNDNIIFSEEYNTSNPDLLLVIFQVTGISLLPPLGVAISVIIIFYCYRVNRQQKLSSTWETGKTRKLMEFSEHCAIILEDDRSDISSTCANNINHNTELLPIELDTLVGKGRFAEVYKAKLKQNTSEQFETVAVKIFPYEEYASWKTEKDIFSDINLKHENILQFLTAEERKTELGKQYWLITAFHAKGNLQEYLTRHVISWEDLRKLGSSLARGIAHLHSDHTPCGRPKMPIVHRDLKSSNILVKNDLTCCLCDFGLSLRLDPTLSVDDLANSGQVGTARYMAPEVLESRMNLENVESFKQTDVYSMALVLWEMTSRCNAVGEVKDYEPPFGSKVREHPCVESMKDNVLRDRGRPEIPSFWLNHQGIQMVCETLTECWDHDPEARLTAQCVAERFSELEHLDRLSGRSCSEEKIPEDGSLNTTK
Phosphatidylinositol 4,5-bisphosphate 3-kinase catalytic subunit gamma isoform, sequence (P48736 whole entry, canonical isoform): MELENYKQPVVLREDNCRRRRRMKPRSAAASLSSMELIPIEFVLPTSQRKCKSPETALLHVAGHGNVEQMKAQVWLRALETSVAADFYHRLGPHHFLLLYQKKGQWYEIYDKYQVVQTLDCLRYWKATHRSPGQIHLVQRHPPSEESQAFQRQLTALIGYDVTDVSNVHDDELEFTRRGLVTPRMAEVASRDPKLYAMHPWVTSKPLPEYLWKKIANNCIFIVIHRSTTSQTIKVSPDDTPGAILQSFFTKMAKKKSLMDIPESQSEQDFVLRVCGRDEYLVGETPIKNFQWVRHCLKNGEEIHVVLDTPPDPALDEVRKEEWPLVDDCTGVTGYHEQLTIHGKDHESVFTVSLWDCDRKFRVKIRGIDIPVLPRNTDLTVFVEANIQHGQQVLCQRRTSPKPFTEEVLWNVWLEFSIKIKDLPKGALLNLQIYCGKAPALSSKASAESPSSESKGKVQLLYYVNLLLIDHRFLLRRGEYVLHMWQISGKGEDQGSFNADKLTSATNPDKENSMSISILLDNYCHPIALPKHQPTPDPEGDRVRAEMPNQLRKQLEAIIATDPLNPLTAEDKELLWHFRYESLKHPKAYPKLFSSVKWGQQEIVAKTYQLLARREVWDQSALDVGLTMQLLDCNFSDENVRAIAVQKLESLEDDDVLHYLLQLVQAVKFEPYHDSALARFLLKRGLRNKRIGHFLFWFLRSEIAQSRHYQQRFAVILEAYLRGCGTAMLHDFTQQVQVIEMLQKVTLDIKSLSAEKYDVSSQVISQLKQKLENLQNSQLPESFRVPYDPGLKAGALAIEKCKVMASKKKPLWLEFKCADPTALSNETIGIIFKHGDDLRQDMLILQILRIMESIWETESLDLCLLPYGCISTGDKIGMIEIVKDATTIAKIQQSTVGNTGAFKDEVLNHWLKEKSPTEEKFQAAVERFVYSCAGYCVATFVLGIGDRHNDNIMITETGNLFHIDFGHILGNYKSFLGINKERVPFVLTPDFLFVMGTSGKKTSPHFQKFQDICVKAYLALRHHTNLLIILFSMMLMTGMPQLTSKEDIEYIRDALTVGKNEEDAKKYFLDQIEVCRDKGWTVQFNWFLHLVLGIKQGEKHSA

## Cc1nc(N)nc(-n2c(Nc3ccn[nH]3)nc3ccccc32)n1
[1]
  bioavailability: 6.3%
[2]
  microsomal CLint: 79 µL/min/mg
[3]
  IC50: 27 nM
[4]
  IC50: 390 nM
[5]
  IC50: 55 nM
[6]
  microsomal CLint: 52 µL/min/mg
Rattus norvegicus [7]
  Activity: Active
[8]
  fraction unbound: 0.028
[9]
  IC50: 510 nM
[10]
  Vd: 1.1 L/kg
[11]
  solubility: 37 µg/mL (≈ 120 µM)
Liver
  CL: 28 µL/min/mg
[12]
  clearance: 31.7 mL/min/kg
Rattus norvegicus [13]
  AUC: 1680 nM
[14]
  IC50: 870 nM
[15]
  half-life: 43.2 min
[16]
  IC50: 800 nM

## Cc1nc(NCC#N)nc(-n2c(Nc3cc[nH]n3)nc3ccccc32)n1
COLO-829
  IC50: 340 nM
NCI-H460
  IC50: 460 nM
A549
  IC50: 430 nM
UACC-893
  IC50: 140 nM
[17]
  inhibition: 17%
CAL-51
  IC50: 320 nM
MCF7
  IC50: 540 nM
[18]
  IC50: 350 nM
BT-474
  IC50: 200 nM
DU-4475
  IC50: 530 nM
MDA-MB-468
  IC50: 690 nM
NCI-H1975
  IC50: 600 nM
SK-MEL-28
  IC50: 470 nM
NCI-H2009
  IC50: 420 nM
NCI-H82
  IC50: 430 nM
A-375
  IC50: 380 nM
MDA-MB-231
  IC50: 270 nM
Calu-6
  IC50: 590 nM
[19]
  inhibition: inactive
HCC1954
  IC50: 220 nM

## Cc1nc(NCCC#N)nc(-n2c(Nc3cc[nH]n3)nc3ccccc32)n1
[20]
  half-life: 42 min
[3]
  IC50: 60 nM
[4]
  IC50: 1300 nM
[5]
  IC50: 82 nM
[21]
  IC50: 6200 nM
[9]
  IC50: 5800 nM
[14]
  IC50: 15400 nM
Rattus norvegicus [22]
  AUC: 1020 nM
[16]
  IC50: 7700 nM
